From patent publication US9163044B2, “Carbon monoxide releasing molecules and uses thereof” (Alfama, Inc., priority 2011, dated 2015)

Columns and labels:
[1] = carboxyhemoglobin (COHb) levels in treated mice; format: in vivo, CD-1 female mice
Procedure: FIG. 9 depicts the percentage of carboxyhemoglobin (CO-Hb) measured in CD-1 female mice following Compound 3b administration at 300 mg/kg, intravenously. The CO-Hb was quantified over 80 min by using an oximeter (Avoximeter 4000 from A-vox Instruments). The base line of CO-Hb measured with this instrument is 3-4%.

[2] = tested on: primary hepatocytes from C57BL/6 mice; assay: ex-vivo model of apoptosis (ActD/TNF-α); format: cell-based, mouse; conditions: 2×150 μg/0.5 mL well (2×600 μM), 24 hours
Procedure: FIGS. 21A-21B depict the effect of Compound 3b in an ex-vivo model of apoptosis. Apoptosis of primary hepatocytes from C57BL/6 mice was induced with Actinomycin D (ActD; 200 ng/mL) and Tumour Necrosis Factor-α (TNF-α; 10 ng/mL). Compound 3b was added to the cultures 1 hour before and 1 hour after the addition of the apoptosis inducers ActD/TNF-α. Compound 3b was tested at concentrations of 25, 50, 100 and 150 μg/0.5 mL well. Hepatocytes survival was determined 24 hours after the addition of the apoptosis inducers. FIG. 21A: Percentage of increase in survival ActD/TNF-α treated cells in the presence of Compound 3b, relative to cells treated with only the apoptosis inducers. FIG. 21B: Toxicity of the Compound 3b doses on murine hepatocytes (not treated with apoptosis inducers). Data are the mean±S.D. of 3-5 independent experiments (3-5 livers from different mice).

[3] = tested on: murine partial hepatectomy model; assay: liver regeneration, murine partial (70%) hepatectomy model; format: in vivo, mice; conditions: 2×100 mg/kg
Procedure: Liver regeneration in the murine partial hepatectomy model to test for regenerative activity. Model: partial (70%) liver resection in mice and follow rate of regeneration.
FIG. 22 depicts the effect of Compound 3b in a model of liver regeneration. Animals were anesthetized and 70% of the liver was resected, corresponding to the left and median liver lobes. Compound 3b was administered (2×100 mg/kg) 1 h before and 1 h after surgery. Two days later, animals were sacrificed, livers harvested, weighed, and stained for phospho histone H3 (PH3, a specific marker for cell division).

[4] = storage stability of the solid; format: physicochemical; conditions: brown vials, ambient temperature, under N2
From the text: Following the procedure described by Beck and coworkers (Achatz et al., Anorg. Allg. Chem (2005) 631:2339-2346) saponification of compound (3-a) or (3-c) with NaOH followed by protonation with an acid (e.g., HCl or H2SO4) in aqueous solution led to the formation of tricarbonyl[tris(2-isocyano-2-methyl-propionic acid)]Mo(0) (3-b). Compound (3-b) is stable when stored in brown vials at ambient temperature under N2 for over 6 months or more.

Compound: [C-]#[N+]C(C)(C)C(=O)O.[C-]#[N+]C(C)(C)C(=O)O.[C-]#[N+]C(C)(C)C(=O)O.[C-]#[O+].[C-]#[O+].[C-]#[O+].[Mo] [Compound 3b, tricarbonyl[tris(2-isocyano-2-methyl-propionic acid)]Mo(0)]
- COHb in blood ([1]; 300 mg/kg i.v., over 80 min, base line 3-4%): ≤ 7.5%
- symptomatic levels of COHb in blood ([1]; therapeutic doses, mice): did not cause symptomatic levels of COHb
- increase in survival of ActD/TNF-α treated hepatocytes relative to inducers only [2]: more than 125%
- liver weight increase 48 h after resection ([3]; 1 h before and 1 h after surgery, control 89%): 102%
- PH3 staining (cell division), in words ([3]; two days after resection): increases PH3 staining
- stable when stored [4]: over 6 months
